One assay deals with Prothrombin (Homo sapiens, UniProt P00734). In words: The compound was tested in vitro for inhibitory activity against Coagulation factor II.
Another assay concerns the target Serine protease 1 (Homo sapiens, UniProt P07477). Description: The compound was tested in vitro for inhibitory activity against human trypsin.
Assay [1] deals with T1, Coagulation factor X (Homo sapiens, UniProt P00742). Description: The compound was tested in vitro for inhibitory activity against Coagulation factor X.
T1 sequence (P00742 41-179 limits assumed): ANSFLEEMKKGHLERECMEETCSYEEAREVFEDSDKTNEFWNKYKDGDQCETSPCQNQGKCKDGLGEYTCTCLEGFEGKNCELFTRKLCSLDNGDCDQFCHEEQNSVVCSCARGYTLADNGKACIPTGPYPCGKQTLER
T1 sequence (P00742 235-488 limits assumed): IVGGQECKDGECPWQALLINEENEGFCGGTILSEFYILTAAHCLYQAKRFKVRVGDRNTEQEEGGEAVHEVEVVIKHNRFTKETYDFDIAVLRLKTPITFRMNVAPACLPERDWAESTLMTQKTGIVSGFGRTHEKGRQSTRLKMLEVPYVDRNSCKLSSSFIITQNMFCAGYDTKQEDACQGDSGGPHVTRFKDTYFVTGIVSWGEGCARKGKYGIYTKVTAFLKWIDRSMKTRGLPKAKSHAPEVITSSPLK
Assay [2] deals with T1, Coagulation factor X. In words: The compound was tested in vitro for inhibitory activity against Coagulation factor X; Inactive.
Assay [3] concerns the target T1, Coagulation factor X. In words: The compound was tested in vitro for inhibitory activity against Coagulation factor X; inactive.

The pIC50 is the negative decadic logarithm of the IC50, by convention in mol/L.

pIC50: −log10 of the molar value. Where only a bound is given, the exact number is not on record here.

Chain of Serine protease 1 (P07477 whole entry): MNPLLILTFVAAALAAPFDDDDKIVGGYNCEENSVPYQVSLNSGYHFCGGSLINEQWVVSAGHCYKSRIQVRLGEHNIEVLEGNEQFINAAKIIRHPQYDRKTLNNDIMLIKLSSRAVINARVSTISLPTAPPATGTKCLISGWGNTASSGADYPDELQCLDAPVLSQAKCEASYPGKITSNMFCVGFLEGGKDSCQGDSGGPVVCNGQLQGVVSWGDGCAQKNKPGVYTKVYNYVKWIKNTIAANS

As for `CS(=O)(=O)NC1(Cc2ccccc2)CCCN(CC(=O)N[C@H]2CCCN(C(=N)N)C2O)C1=O` (some centres undefined), the pIC50 on Prothrombin is 7.50; on Serine protease 1, 7.28; at Coagulation factor X [1] it was less than 5.60.

As to `N=C(N)N1CCC[C@H](NC(=O)CN2CCC[C@@](N)(Cc3ccccc3)C2=O)C1O.O=C(O)C(F)(F)F` (some centres undefined), the IC50 result at Coagulation factor X [2] is “Not Active”. Besides, the negative logarithm of the IC50 (pIC50) is 8.68 at Prothrombin and 6.86 at Serine protease 1.

Regarding `N=C(N)N1CCC[C@H](NC(=O)CN2CCCC[C@@](N)(Cc3ccccc3)C2=O)C1O` (some centres undefined), the pIC50 on Prothrombin was 7.83; against Serine protease 1, 6.01; against Coagulation factor X [1], less than 5.60.

Turning to `N=C(N)N1CCC[C@H](NC(=O)CN2CCCC[C@](N)(Cc3ccccc3)C2=O)C1O.O=C(O)C(F)(F)F` (some centres undefined), the IC50 entry against Coagulation factor X [2] is listed as “Not Active”. Besides, the values for the negative logarithm of the IC50 (pIC50) against Prothrombin and at Serine protease 1 were 6.71 and 5.60, respectively.

`N=C(N)N1CCC[C@H](NC(=O)CN2CCC(NS(=O)(=O)Cc3ccccc3)C2=O)C1O` (some centres undefined): the pIC50 at Prothrombin is 6.90; at Serine protease 1, 6.27; against Coagulation factor X [1], less than 5.60.

As for `N=C(N)N1CCC[C@H](NC(=O)CN2CCC[C@H](NS(=O)(=O)Cc3ccccc3)C2=O)C1O` (some centres undefined), the results for the pIC50 on Serine protease 1 and against Coagulation factor X [1] were 5.90 and less than 5.60, respectively.

Turning to `COC(=O)NC1(Cc2ccccc2)CCCCN(CC(=O)N[C@H]2CCCN(C(=N)N)C2O)C1=O` (some centres undefined), the pIC50 against Prothrombin was 6.33; against Serine protease 1 it was 5.60; against Coagulation factor X [1], 5.60.

On to `N=C(N)N1CCC[C@H](NC(=O)CN2CCC[C@](N)(Cc3ccccc3)C2=O)C1O.O=C(O)C(F)(F)F` (some centres undefined), for which the IC50 entry against Coagulation factor X [3] is on record as “Not Active”. Also, the pIC50 is 6.86 at Prothrombin and 5.60 against Serine protease 1.

With `N=C(N)N1CCC[C@H](NC(=O)CN2CCCC[C@H](NS(=O)(=O)Cc3ccccc3)C2=O)C1O` (some centres undefined), the negative-log IC50 (pIC50) against Prothrombin was 9.15; against Serine protease 1, 6.82; on Coagulation factor X [1], 7.64.

Turning to `N=C(N)N1CCC[C@H](NC(=O)CN2CC[C@@](N)(Cc3ccccc3)C2=O)C1O` (some centres undefined), the values for the negative logarithm of the IC50 (pIC50) against Prothrombin, against Serine protease 1 and on Coagulation factor X [1] were 5.86, 5.86 and 5.60, respectively.

The values above are taken from ChEMBL document CHEMBL1153655, “Rational design and synthesis of a novel, selective class of thrombin inhibitors: P1-argininal derivatives incorporating P3P4 quaternary lactam dipeptide surrogates” (Bioorg Med Chem Lett, 1997).
